Assay results reported in patent publication US12433877B2, “Sustained release drug delivery systems and related methods” (Durect Corporation, priority 2021, dated 2025).
Several values for one entry are separate records, joined by “and”; a condition that tells them apart may be missing. Equal entries are not always repeated. Blank lines part the entries; values can stand above or below the compound they belong to.

Legend:
[1] = Example 14: peroxide content of SAIB / benzyl alcohol versus bupivacaine N-oxide; assay type: physicochemical
Description: Placebo compositions were composed of 75% w/w sucrose acetate isobutyrate (SAIB), and 25% w/w benzyl alcohol. Bupivacaine N-oxide in the sustained release bupivacaine compositions can be formed by an oxidative reaction between bupivacaine and peroxides.
The peroxide content for several lots of sucrose acetate isobutyrate were determined by potentiometric titration involving iodometric titration. The bupivacaine N-oxide levels in samples of Formulation A were determined using HPLC with UV detection.
All of the benzyl alcohol compositions had peroxide values of less than […]. The peroxide value can be converted to peroxide content, expressed as hydrogen peroxide, by multiplying PV by 17. […] The maximum contribution to peroxide content from benzyl alcohol is 85 ppm divided by 3, or 28 ppm.

[2] = system: patients undergoing elective arthroscopic shoulder surgery; assay: Example 1 / Study 1: pain intensity and opioid rescue after arthroscopic shoulder surgery; assay type: in vivo, human; conditions: 0-72 hours after surgery; ITT
clinical [3] = conditions: human, in vivo
Description: Additionally, alpha 1 acid glycoprotein (AAG) plasma concentrations were measured in these two groups for correlation with free bupivacaine concentrations.
Using non-compartmental methods the following PK parameters were calculated from the plasma concentrations of each compound: area under the plasma concentration vs. time curve until the last measured concentration (AUCt), area under the plasma concentration vs. time curve extrapolated until infinity (AUCinf), the maximum concentration (Cmax), the time of its occurrence (tmax) and the apparent terminal elimination half-life (t1/2). […] The average […] of bupivacaine was approximately 5.2%; free bupivacaine plasma concentrations generally paralleled those of total bupivacaine. There was a large interindividual variability of Cmax of both total and free bupivacaine. […] Note: Table 1.5 presents Geometric mean, ±68th percentile for Cmax rather than absolute min,max.

pregnant rabbits = assay: Embryo-fetal development study, subcutaneous, rabbits; assay type: in vivo; conditions: pregnant rabbits, subcutaneous; MRHD 660 mg
Description: (§1) There are no studies conducted with Formulation A in pregnant women. […] Based on animal data, advise pregnant women of the potential risks to a fetus. [see Data]
Bupivacaine hydrochloride was administered subcutaneously to rats at doses of 4.4, 13.3, & 40 mg/kg and to rabbits at doses of 1.3, 5.8, & 22.2 mg/kg during the period of organogenesis (implantation to closure of the hard palate). The high doses are approximately 0.6 times the daily maximum recommended human dose (MRHD) of 660 mg/day on a mg/m^2 body surface area (BSA) basis.

rats = assay: Rat pre- and post-natal development study; assay type: in vivo; conditions: rat; MRHD 660 mg
Description: as §1
The high dose is approximately 0.6 times the daily MRHD of 660 mg/day on a BSA basis.

[4] = system: bacterial reverse mutation; assay: In vitro bacterial reverse mutation assay (Ames assay); assay type: cell-based
Excerpt: (§2) Bupivacaine was negative in the in vitro bacterial reverse mutation assay (Ames assay), the in vitro chromosomal aberration assay (human peripheral blood lymphocytes, and the in vivo rat micronucleus assay.

[5] = system: human peripheral blood lymphocytes; assay: In vitro chromosomal aberration assay; assay type: cell-based
Excerpt: as §2

rat micronucleus = assay: In vivo rat micronucleus assay
Excerpt: as §2

clinical [6] = conditions: human, in vivo; remark: listed apart in the source
Excerpt: Both bupivacaine and benzyl alcohol have been reported to be excreted in human milk.
Bupivacaine appears to cross the placenta by passive diffusion. The rate and degree of diffusion is governed by (1) the degree of plasma protein binding, (2) the degree of ionization, and (3) the degree of lipid solubility. Fetal/maternal ratios of local anesthetics appear to be inversely related to the degree of plasma protein binding, because only the free, unbound drug is available for placental transfer. Bupivacaine with a high protein binding capacity (95%) has a low fetal/maternal ratio (0.2 to 0.4). The extent of placental transfer is also determined by the degree of ionization and lipid solubility of the drug. Lipid soluble, non-ionized drugs such as bupivacaine readily enter the fetal blood from the maternal circulation.
The kidney is the main excretory organ for most local anesthetics and their metabolites. Urinary excretion is affected by urinary perfusion and factors affecting urinary pH. Only 6% of bupivacaine is excreted unchanged in the urine.

[7] = cited from earlier work
[8] = Example 11: metal content by ICP-MS; assay type: physicochemical
Description: Sucrose acetate isobutyrate was tested for metal content as follows. The sample was prepared with a 0.1 g weighed portion mixed with 2 mL nitric acid and 0.5 mL hydrochloric acid for 1 hour on a block digestor set at 110° C. After cooling, 0.5 mL of 30% hydrogen peroxide was added, and the digestion resumed for 30 minutes (the material appeared dissolved). After cooling, internal standard solution was added and dilution with purified water to 20 g produced a solution for ICP-MS analysis. The results are shown below:
Formulation A was compounded using steel compounding tanks. Silicone tubing was used to transfer Formulation A. Formulation A was filled into glass vials, which were then sealed with fluorocarbon-coated stoppers.
Formulation A was tested for metal content as follows. The sample was prepared with a 0.2 g weighed portion mixed with 2 mL nitric acid, 1 mL hydrochloric acid, and 1 mL hydrofluoric acid, then digested in a closed-vessel microwave system (the material appeared dissolved). After cooling, internal standard solution was added and dilution with purified water to 50 g produced a solution for ICP-MS analysis.

[9] = Example 16: in vitro cumulative release of bupivacaine (USP Apparatus II); assay type: physicochemical; conditions: oven at 225° C. for 4 hours
Excerpt: To compare dissolution profiles, formulations having 12% w/w bupivacaine but differing ratios of sucrose acetate isobutyrate (SAIB)/solvent were made and tested as described in the below Methods and Materials. Table 16.1 is a summary of the compositions of the formulations tested.
To compare dissolution profiles, formulations having 12% w/w bupivacaine but differing ratios of sucrose acetate isobutyrate (SAIB)/solvent were made and tested as described below. Table 16.3 is a summary of the compositions of the formulations tested.
To compare dissolution profiles, a control formulation and a heat-stressed SAIB formulation were made and tested as described the below Methods and Materials. Both the control and heat-stressed SAIB formulations nominally consisted of 12% w/w bupivacaine, 22% w/w benzyl alcohol, and 66% w/w SAIB.
The bupivacaine formulations, other than the heat-stressed formulation, were prepared by dissolving appropriate amounts of bupivacaine in appropriate amounts of benzyl alcohol (BA), adding an appropriate amount of sucrose acetate isobutyrate (SAIB), and stirring not less than 45 minutes at about 35° C. For the heat-stressed SAIB formulation, the same process was followed except the SAIB was pre-heated in an oven at 225° C. for 4 hours before use. […]
Dissolution was measured using a USP Apparatus II. […]

[10] = Example 9: 2,6-dimethylaniline standard in different color glassware, electrochemical detection; assay type: physicochemical; conditions: for Observed Concentration of Standard: prepared at 3 ng/mL
Description: For analysis, an aliquot of formulation was diluted 250 times with an aqueous buffer/methanol/acetonitrile diluent. After solubilization of the sample, a small aliquot is transferred into an HPLC vial for analysis using an electrochemical detector.
A series of experiments was conducted examining the effects of amber and red colored glassware on the stability of the 2,6-dimethylaniniline reference standard, using electrochemical detection, at a concentration of 3 ng/mL in an aqueous buffer/methanol solution.
In Experiment 1, the 2,6-dimethylaniline was prepared at a concentration of 3 ng/mL in a clear, colorless glass 100 mL volumetric flask. Aliquots were transferred into clear HPLC glass vials, and assayed against external standards. The 3 injections of the 2,6-dimethylaniline were consistently near 3 ng/mL.
In Experiment 2, the 2,6-dimethylaniline solution at 3 ng/mL prepared in a clear, colorless glass 100 mL volumetric flask was transferred to amber HPLC vials.
An aliquot was transferred into a clear HPLC glass vial, and assayed against external standards. The sample injection had the same 2,6-dimethylaniline concentration value as that in Experiment 1.
In Experiment 4, the 2,6-dimethylaniline solution at 3 ng/mL prepared in the red colored glass 100 mL volumetric flask coated with RAY-SORB® was transferred to an amber HPLC vial.

Peroxide content, expressed as hydrogen peroxide ([1]; PV multiplied by 17): < 8.5 ppm
Peroxide value (PV) ([1]; all lots): less than 0.5
Effective peroxide contribution to formation of bupivacaine N-oxide ([1]; divided by 3): < 2.8 ppm
Compound: OCc1ccccc1 [benzyl alcohol]

Compound: CCCCN1CCCCC1C(=O)Nc1c(C)cccc1C (centres unmarked) [Bupivacaine, 1-butyl-N-(2,6-dimethylphenyl)-2-piperidinecarboxamide]
Total IV morphine equivalent dose of opioid rescue medication, median [2]: 8 mg
fraction unbound (clinical [3]): ~0.052
Dose with embryo-fetal lethality (pregnant rabbits): 0.6 times the maximum recommended human dose
Dose with decreased pup survival (rats): 0.6 times the maximum recommended human dose
Bacterial reverse mutation assay (Ames assay) result [4]: negative
Chromosomal aberration assay result [5]: negative
Rat micronucleus assay result (rat micronucleus): negative
Cmax (clinical [6]): 2850 ng/mL
Excreted unchanged in the urine ([7]; human, in vivo): 6%
Protein binding capacity ([7]; plasma): 95%

Gold ([8]; Detection Limit 0.02): 0.4 ppm
Tin ([8]; Detection Limit 0.04): 0.0 ppm
Iron ([8]; Detection Limit 1): 2 ppm
Peroxide content in SAIB corresponding to 0.8% bupivacaine N-oxide ([1]; linear regression, FIG. 14): 232.5 ppm
Peroxide in SAIB corresponding to the 1.0% specification limit for bupivacaine N-oxide ([1]; linear regression, FIG. 14): 296.4 ppm
SAIB remaining after pre-heating [9]: 98%
Compound: sucrose acetate isobutyrate [SAIB]

Compound: Cc1cccc(C)c1N [2,6-Dimethlylaniline Standard]
Observed Concentration of Standard ([10]; Experiment 1, Clear volumetric flask, Clear HPLC vial): 3.0 ng/mL and 3.1 ng/mL
Observed Concentration of Standard ([10]; Experiment 2, Clear volumetric flask, Amber HPLC vial): 24.5 ng/mL and 28.4 ng/mL and 34.6 ng/mL and 38.1 ng/mL
Observed Concentration of Standard ([10]; Experiment 3, Red volumetric flask, Clear HPLC vial): 3.0 ng/mL
Observed Concentration of Standard ([10]; Experiment 4, Red volumetric flask, Amber HPLC vial): 14.9 ng/mL

Compound: Cc1cccc(C)c1N [2,6-dimethylaniline]
2,6-dimethylaniline concentration found ([10]; Experiment 1: clear flask, clear HPLC vials, 3 ng/mL prepared): ~3 ng/mL
2,6-dimethylaniline concentration relative to Experiment 1 ([10]; Experiment 3: red RAY-SORB flask, clear HPLC vial): same
2,6-dimethylaniline content relative to Experiments 1 and 3 ([10]; Experiment 4: red RAY-SORB flask, amber HPLC vial): approximately 5 times higher
